Results taken from patent publication US9695155B2, “Herbicidal substituted pyrimidinyloxy benzene compounds” (E. I. DU PONT DE NEMOURS AND COMPANY, priority 2013, dated 2017).

Assays:
[1] = tested on: Heteranthera limosa; test: Test B flooded paddy test; assay type: in vivo; settings: Flood, 250 g ai/ha; 0 to 100 scale where 0 is no effect and 100 is complete control
How it was run: (§1)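 Scores from 0 (no effect) to 100 (complete control) are visual comparisons with controls, taken 13 to 15 days after compound was applied into floodwater 3 cm deep around 2-leaf plants.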

[2] = tested on: pigweed; test: Test C postemergence; assay type: in vivo, Amaranthus retroflexus
How it was run: (§2)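 Injury was assessed visually against controls 13 to 15 days after application, with 0 meaning no effect and 100 full control; missing entries are shown as a dash. Preemergence sprays hit seeded loam–sand soil, postemergence sprays hit 1- to 4-leaf plants.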

[3] = tested on: galium; test: Test C postemergence; assay type: in vivo, Galium aparine
How it was run: as §2

[4] = tested on: corn; test: Test C postemergence; assay type: in vivo, Zea mays
How it was run: as §2

[5] = tested on: rice; test: Test B flooded paddy test; assay type: in vivo, Oryza sativa; settings: Flood, 250 g ai/ha; 0 to 100 scale where 0 is no effect and 100 is complete control
How it was run: as §1

[6] = tested on: Italian ryegrass; test: Test A preemergence; assay type: in vivo, Lolium multiflorum
How it was run: (§3)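 Injury scores run from 0, no effect, to 100, complete control, judged by eye against untreated plants roughly 10 days after treatment. Chemicals carried a surfactant in a non-phytotoxic solvent and went onto loam–sand soil preemergence or onto one- to two-leaf seedlings postemergence.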

[7] = tested on: lambsquarters; test: Test C postemergence; assay type: in vivo, Chenopodium album
How it was run: as §2

[8] = tested on: barnyardgrass; test: Test B flooded paddy test; assay type: in vivo, Echinochloa crus-galli; settings: Flood, 250 g ai/ha; 0 to 100 scale where 0 is no effect and 100 is complete control
How it was run: as §1

[9] = tested on: corn; test: Test A postemergence; assay type: in vivo, Zea mays
How it was run: as §3

[10] = tested on: waterhemp; test: Test C postemergence; assay type: in vivo, Amaranthus rudis
How it was run: as §2

[11] = tested on: ragweed; test: Test A preemergence; assay type: in vivo, Ambrosia elatior
How it was run: as §3

[12] = tested on: Italian ryegrass; test: Test C postemergence; assay type: in vivo, Lolium multiflorum
How it was run: as §2

[13] = tested on: galium; test: Test C preemergence; assay type: in vivo, Galium aparine; settings: for Galium plant response rating: preemergence
How it was run: as §2

[14] = tested on: kochia; test: Test A preemergence; assay type: in vivo, Kochia scoparia
How it was run: as §3

[15] = tested on: barnyardgrass; test: Test A postemergence; assay type: in vivo, Echinochloa crus-galli
How it was run: as §3

[16] = tested on: corn; test: Test C preemergence; assay type: in vivo, Zea mays; settings: for Corn plant response rating: preemergence
How it was run: as §2

[17] = 16 g ai/ha, postemergence, 0 is no effect, 100 is complete control
[18] = 31 g ai/ha, postemergence, visual rating, scale 0 to 100 (0 no effect, 100 complete control), 13 to 15 days
[19] = 125 g ai/ha, postemergence, visual rating, scale 0 to 100 (0 no effect, 100 complete control)
[20] = Postemergence, 62 g ai/ha, scale 0 to 100 (0 no effect, 100 complete control), 13 to 15 days
[21] = 500 g ai/ha, 0 to 100 scale where 0 is no effect and 100 is complete control
[22] = 125 g ai/ha, 0 to 100 scale, 0 no effect, 100 complete control
[23] = 16 g ai/ha, scale 0 to 100 (0 no effect, 100 complete control)
[24] = 125 g ai/ha, scale 0 (no effect) to 100 (complete control)
[25] = Preemergence, 62 g ai/ha, scale 0 to 100, 0 no effect, 100 complete control

SMILES: N#Cc1cn(-c2c(C#N)cccc2Oc2ncc(Cl)cn2)nn1 [Compound 273]
- Plant response rating, Ducksalad [1]: 75
- Plant response rating (0 to 100), Pigweed [2, 17]: 65
- Pigweed plant response rating [2, 18]: 80
- Plant response rating, Pigweed [2, 19]: 90
- Plant response rating, Pigweed [2, 20]: 65
- Plant response rating (0 to 100), Galium [3, 17]: 55
- Galium plant response rating [3, 18]: 60
- Plant response rating, Galium [3, 19]: 80
- Plant response rating, Galium [3, 20]: 60
- Plant response rating (0 to 100), Corn [4, 17]: 5
- Corn plant response rating [4, 18]: 5
- Plant response rating, Corn [4, 19]: 5
- Plant response rating, Corn [4, 20]: 5
- Plant response rating, Rice [5]: 0
- Ryegrass, Italian plant response rating (0 to 100 scale) ([6]; 125 g ai/ha): 20
- Ryegrass, Italian plant response rating [6, 21]: 40
- Plant response rating (0 to 100), Lambsquarters [7, 17]: 25
- Lambsquarters plant response rating [7, 18]: 40
- Plant response rating, Lambsquarters [7, 19]: 80
- Plant response rating, Lambsquarters [7, 20]: 85
- Plant response rating, Barnyardgrass [8]: 0
- Plant response rating, Corn [9, 22]: 40
- Plant response rating, Corn [9, 21]: 50
- Plant response rating (0 to 100), Waterhemp [10, 17]: 35
- Waterhemp plant response rating [10, 18]: 40
- Plant response rating, Waterhemp [10, 19]: 80
- Plant response rating, Waterhemp [10, 20]: 65
- Ragweed plant response rating (0 to 100 scale) ([11]; 125 g ai/ha): 70
- Ragweed plant response rating [11, 21]: 80
- Plant response rating (0 to 100), Ryegrass, Italian [12, 17]: 5
- Ryegrass, Italian plant response rating [12, 18]: 5
- Plant response rating, Ryegrass, Italian [12, 19]: 10
- Plant response rating, Ryegrass, Italian [12, 20]: 5
- Galium plant response rating [13, 23]: 0
- Galium plant response rating [13, 24]: 98
- Plant response rating, Galium [13, 25]: 95
- Kochia plant response rating (0 to 100 scale) ([14]; 125 g ai/ha): 100
- Kochia plant response rating [14, 21]: 100
- Plant response rating, Barnyardgrass [15, 22]: 70
- Plant response rating, Barnyardgrass [15, 21]: 90
- Corn plant response rating [16, 23]: 0
- Corn plant response rating [16, 24]: 35
- Plant response rating, Corn [16, 25]: 45
